{"source": "paper PMC5969746", "about": "(PLoS ONE, 2018)", "molecules": {"B1": {"name": "scyllo-inositol dehydrogenase with L-glucose dehydrogenase activity (Pl-scyllo-IDH) (Paracoccus laeviglucosivorans; R178A) (protein)", "chain": "MSNAEKALGVALIGTGFMGKCHAMAWRNVATAFGGLPPRLEVLADMPADKAHSLASSFGFARGTADWREAVNDPAVDVVSITTPNGLHREMAEAALAAGKHVWLEKPMALSVEDAQAMEAAARASDRRTIIGYNYTRSPAFRAAVDLIAEGAIGRPIHFRGMYDEDYMADPDLPWSWALTRKDGGLGALGDLGCHLVSVMVSLMGPVARVYAQADTVITDRPHQGGTARVENEDQAQALIRFASGTSGEFSCSRVARGYRCRLAWEVQGTEGTLRFDQERMNELWLYQPGRPEIDGFRRILTGPAQPGFAAFCPGGGHNFGFNEQKVVEAEMLRQAIAGRGKAWPDFTDGLTIERVIHGMATSAQTGQPVNF", "notes": "lgdA in pET21a(+), expressed in E. coli BL21(DE3), Ni-NTA purified; homo-tetramer, active site includes H318 of the adjacent subunit"}, "B2": {"name": "Paracoccus laeviglucosivorans scyllo-inositol dehydrogenase (enzyme)", "chain": "B1 chain with A178R", "notes": "Protein encoded by the lgdA gene of Paracoccus laeviglucosivorans (scyllo-inositol dehydrogenase, GFO/IDH/MocA family); A selenomethionine-substituted form (E. coli B834(DE3)) was used only for phasing; Crystals were also soaked with NAD+ and L-glucose, myo-inositol or scyllo-inosose; also called Pl-scyllo-IDH; LgdA; source: E. coli BL21(DE3), pET21a(+), purified (Ni-NTA agarose, dialysis)"}}, "key": {"[1]": {"target": "T1, scyllo-inositol dehydrogenase with L-glucose dehydrogenase activity (Pl-scyllo-IDH) (Paracoccus laeviglucosivorans, UniProt K7ZP76)", "T1 construct": "gene lgdA; lgdA in pET21a(+), expressed in E. coli BL21(DE3), Ni-NTA purified; homo-tetramer, active site includes H318 of the adjacent subunit", "T1 sequence (K7ZP76 1-372)": "B1 chain with A178R", "assay": "X-ray crystal structure, […] Å", "format": "binding", "settings": "crystal soaked with 100 mM myo-inositol and 25 mM NAD+; active site"}, "[2]": {"target": "T1, scyllo-inositol dehydrogenase with L-glucose dehydrogenase activity (Pl-scyllo-IDH)", "assay": "X-ray crystal structure, […] Å", "format": "binding"}, "[3]": {"target": "T1, scyllo-inositol dehydrogenase with L-glucose dehydrogenase activity (Pl-scyllo-IDH)", "assay": "X-ray crystal structure, […] Å", "format": "binding", "remark": "listed apart in the source"}, "purified protein": {"substrate": "O[C@H]1[C@H](O)[C@@H](O)[C@H](O)[C@@H](O)[C@@H]1O", "assay": "purified protein", "format": "biochemical, Paracoccus laeviglucosivorans", "settings": "20 mM NAD+, 100 mM Tris-HCl, pH 9.0"}, "[4]": {"target": "the molecule itself", "assay": "crystal structure; homo-tetramer in the asymmetric unit, space group P212121; crystals grown at 20°C by hanging-drop vapor diffusion, 0.1 M sodium acetate pH 4.8-5.4, 12-35% PEG 3350; apo form and complexes with NAD+/NADH and sugars"}}, "note": "Residue numbers refer to the chain shown, from its start. Names and notes keep the numbering of the source.", "data": [{"molecule": "O[C@H]1[C@H](O)[C@@H](O)[C@H](O)[C@@H](O)[C@H]1O", "note": "[myo-inositol]", "values": [{"measurement": "X-ray crystal structure, 2.3 Å", "setting": "[1]", "result": "complex structures of Pl-scyllo-IDH with scyllo-inosose and myo-inositol were also determined"}]}, {"molecule": "NC(=O)c1ccc[n+]([C@@H]2O[C@H](COP(=O)(O)OP(=O)(O)OC[C@H]3O[C@@H](n4cnc5c(N)ncnc54)[C@H](O)[C@@H]3O)[C@@H](O)[C@H]2O)c1", "note": "[NAD^+]", "values": [{"measurement": "X-ray crystal structure, 2.0 Å", "setting": "[2]; complex with scyllo-inosose (also with myo-inositol, 5YA8, 2.3 Å), 25 mM NAD+ soak", "result": "myo-inositol/NAD^+ and scyllo-inosose/NAD^+ complexes have been deposited"}]}, {"molecule": "O=C1O[C@@H](CO)[C@H](O)[C@@H](O)[C@@H]1O", "note": "[L-glucono-1,5-lactone]", "values": [{"measurement": "X-ray crystal structure, 1.8 Å", "setting": "[3]; crystal soaked with 100 mM L-glucose and 25 mM NAD+, active site, NADH complex", "result": "bound molecule in the active site was in fact the reaction product of L-glucose oxidation"}]}, {"molecule": "NC(=O)C1=CN([C@@H]2O[C@H](COP(=O)(O)OP(=O)(O)OC[C@H]3O[C@@H](n4cnc5c(N)ncnc54)[C@H](O)[C@@H]3O)[C@@H](O)[C@H]2O)C=CC1", "note": "[NADH]", "values": [{"measurement": "X-ray crystal structure, 1.8 Å", "setting": "[3]; complex with L-glucono-1,5-lactone, crystal soaked with NAD+, assigned as NADH", "result": "the bound cofactor molecule might therefore be NADH"}]}, {"molecule": "O=C1[C@@H](O)[C@H](O)[C@@H](O)[C@H](O)[C@H]1O", "note": "[scyllo-inosose]", "values": [{"measurement": "X-ray crystal structure, 2.0 Å", "setting": "[2]; crystal soaked with 100 mM scyllo-inosose and 25 mM NAD+, active site", "result": "the carbonyl oxygen located between K106 and H195 formed hydrogen bonds"}]}, {"molecule": "B1", "values": [{"measurement": "Km", "setting": "purified protein", "result": "40.6 ± 7.2", "unit": "mM"}, {"measurement": "kcat", "setting": "purified protein", "result": "8.1 ± 0.65", "unit": "s⁻¹"}, {"measurement": "kcat/Km", "setting": "purified protein", "result": 200, "unit": "M⁻¹ s⁻¹"}]}, {"molecule": "B2", "values": [{"measurement": "stoichiometry N", "setting": "[4]", "result": 4}]}]}
